Reference: PMC3961306, “Comparison of the Cancer Gene Targeting and Biochemical Selectivities of All Targeted Kinase Inhibitors Approved for Clinical Use” (PLoS ONE, 2014)
Like-named read-outs stand apart in the source and are kept apart here.

Assays:
Assay in all cases: Kinase profiling in a biochemical assay panel (mobility shift assays and ELISA), %-inhibition at 1 μM; selectivity entropy
[1] = target: T1, panel of more than 300 wild-type and mutant kinases (313 kinase panel) (Homo sapiens, UniProt Q92630)
T1 sequence (Q92630 1-601): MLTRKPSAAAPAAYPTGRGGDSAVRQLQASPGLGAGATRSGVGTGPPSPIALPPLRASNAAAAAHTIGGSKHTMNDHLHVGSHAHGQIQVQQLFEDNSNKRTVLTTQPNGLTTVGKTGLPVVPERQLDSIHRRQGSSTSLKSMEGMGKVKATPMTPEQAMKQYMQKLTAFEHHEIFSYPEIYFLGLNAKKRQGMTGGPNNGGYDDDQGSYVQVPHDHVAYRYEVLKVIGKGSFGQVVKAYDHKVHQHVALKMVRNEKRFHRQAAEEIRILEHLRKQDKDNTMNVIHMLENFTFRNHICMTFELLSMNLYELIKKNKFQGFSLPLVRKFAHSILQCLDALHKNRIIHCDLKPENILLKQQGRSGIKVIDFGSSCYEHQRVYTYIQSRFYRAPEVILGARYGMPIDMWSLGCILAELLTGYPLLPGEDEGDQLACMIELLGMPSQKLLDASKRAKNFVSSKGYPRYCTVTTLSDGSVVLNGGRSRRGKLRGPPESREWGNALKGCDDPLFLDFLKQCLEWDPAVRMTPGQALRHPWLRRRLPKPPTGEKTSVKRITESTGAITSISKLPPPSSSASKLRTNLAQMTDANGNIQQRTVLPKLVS

[2] = target: panel of more than 300 wild-type and mutant kinases (313 kinase panel) (Homo sapiens, UniProt O96013)
[3] = target: panel of more than 300 wild-type and mutant kinases (313 kinase panel) (Homo sapiens, UniProt P24723)
[4] = target: panel of more than 300 wild-type and mutant kinases (313 kinase panel) (Homo sapiens, UniProt P28482)
[5] = target: panel of more than 300 wild-type and mutant kinases (313 kinase panel) (Homo sapiens, UniProt Q16620)
[6] = target: panel of more than 300 wild-type and mutant kinases (313 kinase panel) (Homo sapiens, UniProt P21802)
[7] = target: panel of more than 300 wild-type and mutant kinases (313 kinase panel) (Homo sapiens, UniProt Q16512)
[8] = target: panel of more than 300 wild-type and mutant kinases (313 kinase panel) (Homo sapiens, UniProt Q15208)
[9] = target: panel of more than 300 wild-type and mutant kinases (313 kinase panel) (Homo sapiens, UniProt Q9Y463)
[10] = target: T2, panel of more than 300 wild-type and mutant kinases (313 kinase panel) (Homo sapiens, UniProt P30530)
T2 sequence (P30530 26-894): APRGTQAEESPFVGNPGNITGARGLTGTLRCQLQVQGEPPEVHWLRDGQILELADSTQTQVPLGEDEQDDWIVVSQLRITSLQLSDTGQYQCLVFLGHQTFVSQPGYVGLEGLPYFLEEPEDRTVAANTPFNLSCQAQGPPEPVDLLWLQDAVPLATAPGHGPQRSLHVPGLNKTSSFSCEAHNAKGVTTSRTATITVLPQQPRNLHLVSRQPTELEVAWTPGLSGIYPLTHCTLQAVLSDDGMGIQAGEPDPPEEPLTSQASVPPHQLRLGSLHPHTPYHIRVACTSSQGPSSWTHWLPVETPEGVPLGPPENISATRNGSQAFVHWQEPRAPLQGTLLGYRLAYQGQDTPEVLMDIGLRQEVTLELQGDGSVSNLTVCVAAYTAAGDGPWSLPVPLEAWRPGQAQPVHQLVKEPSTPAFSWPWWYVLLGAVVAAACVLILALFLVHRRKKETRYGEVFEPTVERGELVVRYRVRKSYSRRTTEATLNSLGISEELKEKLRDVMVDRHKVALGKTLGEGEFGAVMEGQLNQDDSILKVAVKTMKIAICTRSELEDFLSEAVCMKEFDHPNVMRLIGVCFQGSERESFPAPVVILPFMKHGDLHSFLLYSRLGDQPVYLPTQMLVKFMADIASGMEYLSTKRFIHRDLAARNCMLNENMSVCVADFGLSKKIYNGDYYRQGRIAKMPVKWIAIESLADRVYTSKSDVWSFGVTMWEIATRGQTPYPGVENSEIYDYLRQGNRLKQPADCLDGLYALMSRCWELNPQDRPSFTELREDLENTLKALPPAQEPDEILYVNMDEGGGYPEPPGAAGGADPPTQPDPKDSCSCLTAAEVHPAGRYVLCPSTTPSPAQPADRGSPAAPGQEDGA

[11] = kinase DYRK1B, compound at 1 μM

Chain of panel of more than 300 wild-type and mutant kinases (313 kinase panel) (Homo sapiens, UniProt Q9Y463) (Q9Y463 whole entry, change not shown): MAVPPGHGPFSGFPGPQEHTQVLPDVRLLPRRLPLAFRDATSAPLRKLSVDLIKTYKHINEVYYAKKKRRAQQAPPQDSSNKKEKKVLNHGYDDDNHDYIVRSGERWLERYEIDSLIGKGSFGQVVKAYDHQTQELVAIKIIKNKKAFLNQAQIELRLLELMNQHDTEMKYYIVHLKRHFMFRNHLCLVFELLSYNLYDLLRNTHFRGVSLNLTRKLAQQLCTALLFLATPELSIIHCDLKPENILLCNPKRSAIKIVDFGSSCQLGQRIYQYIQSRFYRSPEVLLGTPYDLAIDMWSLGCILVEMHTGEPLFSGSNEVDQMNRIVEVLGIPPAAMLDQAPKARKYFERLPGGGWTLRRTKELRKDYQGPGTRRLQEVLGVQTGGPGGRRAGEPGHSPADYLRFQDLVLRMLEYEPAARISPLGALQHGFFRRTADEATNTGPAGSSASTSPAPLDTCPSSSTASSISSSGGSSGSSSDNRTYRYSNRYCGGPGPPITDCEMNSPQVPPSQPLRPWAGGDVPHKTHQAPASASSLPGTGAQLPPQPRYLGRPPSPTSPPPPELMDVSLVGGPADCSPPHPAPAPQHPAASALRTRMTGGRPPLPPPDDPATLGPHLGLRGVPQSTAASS
Chain of panel of more than 300 wild-type and mutant kinases (313 kinase panel) (Homo sapiens, UniProt P24723) (P24723 whole entry, change not shown): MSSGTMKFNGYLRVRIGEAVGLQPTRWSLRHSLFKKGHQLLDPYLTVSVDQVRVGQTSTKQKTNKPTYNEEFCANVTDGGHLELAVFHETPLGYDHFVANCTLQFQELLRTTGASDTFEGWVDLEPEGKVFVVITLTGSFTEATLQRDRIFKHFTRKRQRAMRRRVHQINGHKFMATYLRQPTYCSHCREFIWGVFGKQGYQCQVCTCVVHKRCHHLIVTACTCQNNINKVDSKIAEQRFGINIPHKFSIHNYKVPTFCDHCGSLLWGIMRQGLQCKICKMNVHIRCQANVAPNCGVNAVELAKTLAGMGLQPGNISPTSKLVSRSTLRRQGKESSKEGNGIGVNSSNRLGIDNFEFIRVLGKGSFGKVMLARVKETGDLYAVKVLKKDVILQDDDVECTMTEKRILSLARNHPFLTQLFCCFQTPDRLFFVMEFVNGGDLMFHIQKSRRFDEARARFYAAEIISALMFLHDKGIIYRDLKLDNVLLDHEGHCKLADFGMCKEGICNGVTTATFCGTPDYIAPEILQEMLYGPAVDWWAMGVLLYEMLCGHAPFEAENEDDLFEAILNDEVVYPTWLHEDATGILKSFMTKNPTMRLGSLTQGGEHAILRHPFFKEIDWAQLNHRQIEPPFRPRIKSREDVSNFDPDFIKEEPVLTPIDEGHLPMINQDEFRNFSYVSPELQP
Chain of panel of more than 300 wild-type and mutant kinases (313 kinase panel) (Homo sapiens, UniProt Q15208) (Q15208 whole entry, change not shown): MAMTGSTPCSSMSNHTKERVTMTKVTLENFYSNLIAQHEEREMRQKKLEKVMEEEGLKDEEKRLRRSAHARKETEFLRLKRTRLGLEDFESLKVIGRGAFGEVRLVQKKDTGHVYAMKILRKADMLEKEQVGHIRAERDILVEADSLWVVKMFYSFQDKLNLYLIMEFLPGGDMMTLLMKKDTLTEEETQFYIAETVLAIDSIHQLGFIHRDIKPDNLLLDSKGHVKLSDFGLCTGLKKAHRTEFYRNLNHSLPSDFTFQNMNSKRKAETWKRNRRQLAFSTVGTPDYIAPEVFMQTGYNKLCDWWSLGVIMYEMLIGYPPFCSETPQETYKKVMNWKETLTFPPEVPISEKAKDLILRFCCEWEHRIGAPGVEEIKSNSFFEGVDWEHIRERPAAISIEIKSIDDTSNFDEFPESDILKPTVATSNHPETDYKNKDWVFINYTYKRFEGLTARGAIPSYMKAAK

SMILES | %-inhibition of DYRK2 ([1]; kinase DYRK2, compound at 1 μM) | %-inhibition of PAK4 ([2]; kinase PAK4, 1 μM) | %-inhibition of PKCη ([3]; kinase PKCη, 1 μM) | %-inhibition of Erk2 ([4]; kinase Erk2, compound at 1 μM) | %-inhibition of TRKB ([5]; kinase TRKB, 1 μM) | %-inhibition of FGFR2 ([6]; kinase FGFR2, compound at 1 μM) | %-inhibition of PKN1 ([7]; kinase PKN1, 1 μM) | %-inhibition of NDR1 ([8]; kinase NDR1, 1 μM) | %-inhibition of DYRK1B [9, 11] | %-inhibition, AXL ([10]; kinase AXL, 1 μM compound) | %-inhibition of DYRK2 ([1]; 1 µM) | %-inhibition of PAK4 ([2]; 1 µM) | %-inhibition of PKCη ([3]; 1 µM) | %-inhibition of Erk2 ([4]; 1 µM) | %-inhibition of TRKB ([5]; 1 µM) | %-inhibition of FGFR2 ([6]; 1 µM) | %-inhibition of PKN1 ([7]; 1 µM) | %-inhibition of NDR1 ([8]; 1 µM) | %-inhibition, AXL ([10]; 1 µM) | %-inhibition of DYRK1B [9]
C[C@@H](Oc1cc(-c2cnn(C3CCNCC3)c2)cnc1N)c1c(Cl)ccc(F)c1Cl [crizotinib] | 10% | -5.56% | -8% | -4.58% | 102% | 27% | 23% | -1.48% | -3% |  |  |  |  |  |  |  |  |  |  | 
CC(C)(C)c1nc(-c2cccc(NS(=O)(=O)c3c(F)cccc3F)c2F)c(-c2ccnc(N)n2)s1 [dabrafenib] | 6% | 11% | 9% | -8% | 86% | 4% | -2.84% | -0.891% | 29% | 30% |  |  |  |  |  |  |  |  |  | 
COc1cc2c(Nc3ccc(Br)cc3F)ncnc2cc1OCC1CCN(C)CC1 [vandetanib] | -9% | -11% | -9% | -4% | 26% | 103% | 0.946% | -9% | -2.71% |  |  |  |  |  |  |  |  |  |  | 
O=S(=O)(c1cccc2cnccc12)N1CCCNCC1 [fasudil] | -1.3% |  | 35% | -7% | -2.66% | -1.76% | 55% | 18% | 4.76% | 2.62% |  |  |  |  |  |  |  |  |  | 
C#Cc1cccc(Nc2ncnc3cc(OCCOC)c(OCCOC)cc23)c1 [erlotinib] |  |  |  |  |  |  |  |  |  |  | 45% | -4% | 6.34% | -2% | 0.183% | 58% | 2.76% | 3.48% | 18% | -28%
COc1cc2nccc(Oc3ccc(NC(=O)C4(C(=O)Nc5ccc(F)cc5)CC4)cc3)c2cc1OC [cabozantinib] | 17% | -13% | 8.55% | -8% |  | 32% | 2.13% | -5.4% | -5% | 100% |  |  |  |  |  |  |  |  |  | 
Cc1ccc(C(=O)Nc2ccc(CN3CCN(C)CC3)c(C(F)(F)F)c2)cc1C#Cc1cnc2cccnn12 [ponatinib] |  |  | 5.45% |  | 100% | 100% | 1.61% |  | 2% | 70% |  |  |  |  |  |  |  |  |  | 
CCCS(=O)(=O)Nc1ccc(F)c(C(=O)c2c[nH]c3ncc(-c4ccc(Cl)cc4)cc23)c1F [vemurafenib] | 1% | -7% | -22% | -4.58% | 11% | 10% | -0.378% | -3.81% | -1.74% | 20% |  |  |  |  |  |  |  |  |  | 
CCN(CC)CCNC(=O)c1c(C)[nH]c(/C=C2\C(=O)Nc3ccc(F)cc32)c1C [sunitinib] |  | 6.58% |  |  |  | 97% |  | 9% |  | 98% |  |  |  |  |  |  |  |  |  | 
Cc1cn(-c2cc(NC(=O)c3ccc(C)c(Nc4nccc(-c5cccnc5)n4)c3)cc(C(F)(F)F)c2)cn1 [nilotinib] | 28% |  | 5.43% | 1.49% |  |  | 13% | -3% | -7.58% | -4.75% |  | -21% |  |  | 56% | -67% |  |  |  | 
CS(=O)(=O)CCNCc1ccc(-c2ccc3ncnc(Nc4ccc(OCc5cccc(F)c5)c(Cl)c4)c3c2)o1 [lapatinib] |  |  | 2.46% | -7% | -10% |  | 0% | -0.543% | 3% |  | 10% |  |  |  |  | 0.434% |  |  | 19% | 
CNC(=O)c1cc(Oc2ccc(NC(=O)Nc3ccc(Cl)c(C(F)(F)F)c3)c(F)c2)ccn1 [regorafenib] | 2% | -15% | -9% | -5% | 74% | 103% | 0.804% | -9% | -7.4% | 29% |  |  |  |  |  |  |  |  |  | 
Cc1nc(Nc2ncc(C(=O)Nc3c(C)cccc3Cl)s2)cc(N2CCN(CCO)CC2)n1 [dasatinib] | 12% |  | 3% |  |  |  |  | -1.85% |  |  |  |  |  |  |  |  |  |  |  | 
Cc1ccc(Nc2nccc(N(C)c3ccc4c(C)n(C)nc4c3)n2)cc1S(N)(=O)=O [pazopanib] | -1% | 1.68% | -1.67% | -0.636% |  | 97% | 17% | 2.49% | -3% | 24% |  |  |  |  |  |  |  |  |  | 
COc1cc(Nc2c(C#N)cnc3cc(OCCCN4CCN(C)CC4)c(OC)cc23)c(Cl)cc1Cl [bosutinib] |  |  | 1.14% |  | 62% |  | 32% |  | -5% |  |  |  |  |  |  |  |  | -3.49% |  | 
